Tests used:
PD-1/PD-L1 = PD-1/PD-L1 (Homo sapiens (Human), UniProt Q9NZQ7); experiment: PD-1/PD-L1 Binding Assay (Alphascreen)
In short: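 PD-1/PD-L1 binding detected by anti-6×His acceptor and streptavidin donor beads after 120 min in the dark at 25 °C. Beforehand, the two proteins were incubated 15 min at 25 °C with inhibitor at 0.015–300 nM (1% DMSO). IC50 comes from a log concentration–response curve.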

[1] = Pharmacokinetic Assay, single oral dose 5 mg/kg (Table 12); format: in vivo; settings: mouse, plasma concentration, C57 female mice, single oral dose 5 mg/kg
Description: Adult C57 female mice were received to single-dose of the test compounds with 15% DMSO, 10% Kolliphor^@HS 15 and 75% saline as excipients, the mice (n=3) were giving oral administration (intragastric administration) with the compounds at a dose of 5 mg/kg. Time of blood collection: 30 min, 2 h, 4 h. approximately 0.1 mL of whole blood was collected from retro-orbital venous plexus, and placed into tubes that contained K2-EDTA as an anticoagulant. The whole blood were centrifuged at 4° C. and 4000 rpm for 10 min. The plasma was transferred into centrifuge tubes, and stored at −20° C. until being analyzed. Concentrations of test compounds in the plasma samples were analyzed with liquid chromatography-tandem mass spectrometry (LC-MS/MS). Plasma concentration-time data of individual animals was analyzed using Microsoft Excel 2010.

PD-1/PD-L1, sequence (Q9NZQ7 19-238): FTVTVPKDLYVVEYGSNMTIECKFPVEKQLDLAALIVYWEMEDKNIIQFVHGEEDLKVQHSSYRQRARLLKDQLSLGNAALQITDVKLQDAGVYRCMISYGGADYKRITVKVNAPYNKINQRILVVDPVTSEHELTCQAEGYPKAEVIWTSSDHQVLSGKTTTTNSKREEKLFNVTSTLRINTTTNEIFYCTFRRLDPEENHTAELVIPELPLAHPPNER

SMILES | IC50 (PD-1/PD-L1; numeric values) [nM] | IC50 (PD-1/PD-L1; range symbols) [nM] | further results
Cc1c(-c2nc3cc(CN4CCC(F)C4)c(OC(F)F)cc3o2)cccc1-c1cccc(-c2nc3cc(CN4CCC[C@H]4C(=O)O)c(OC(F)F)cc3o2)c1C (stereo partly drawn) [Example 10, ((6-(difluoromethoxy)-2-(3′-(6-(difluoromethoxy)-5-((3-fluoropyrrolidin-1-yl)methyl)benzo[d]oxazol-2-yl)-2,2′-dimethyl-[1,1′-biphenyl]-3-yl)benzo[d]oxazol-5-yl)methyl)-L-proline] | 19 | – | concentration at 0.5 h [1]: 80.9 ng/mL; concentration at 2 h [1]: 221 ng/mL; concentration at 4 h [1]: 214 ng/mL
Cc1c(-c2nc3cc(CN4CCC[C@H]4C(=O)O)c(OC(F)F)cc3o2)cccc1-c1cccc(NC(=O)c2ccc(CNCCO)cn2)c1Cl [Example 302, ((2-(2′-chloro-3′-(5-(((2-hydroxyethyl)amino)methyl)picolinamido)-2-methyl-[1,1′-biphenyl]-3-yl)-6-(difluoromethoxy)benzo[d]oxazol-5-yl)methyl)-L-proline] | 0.29 | – | –
Cc1c(NC(=O)c2cn3c(n2)CNCC3)cccc1-c1cccc(-c2nc3cc(CN4CCC[C@H]4C(=O)O)c(OC(F)F)cc3o2)c1C [Example 303, ((6-(difluoromethoxy)-2-(2,2′-dimethyl-3′-(5,6,7,8-tetrahydroimidazo[1,2-a]pyrazine-2-carboxamido)-[1,1′-biphenyl]-3-yl)benzo[d]oxazol-5-yl)methyl)-L-proline] | 1.6 | – | –
Cc1c(-c2nc3cc(CN4CCC[C@H]4C(=O)O)c(OC(F)F)cc3o2)cccc1-c1cccc(N2CCC(N3CCCC3)CC2)c1C [Example 306, ((6-(difluoromethoxy)-2-(2,2′-dimethyl-3′-(4-(pyrrolidin-1-yl)piperidin-1-yl)-[1,1′-biphenyl]-3-yl)benzo[d]oxazol-5-yl)methyl)-L-proline] | 1.5 | – | –
Cc1c(-c2nc3cc(CN4CCC[C@H]4C(=O)O)c(OC(F)F)cc3o2)cccc1-c1cccc(N2CCC(NCC3(CO)CC3)CC2)c1C [Example 307, ((6-(difluoromethoxy)-2-(3′-(4-(((1-(hydroxymethyl)cyclopropyl)methyl)amino)piperidin-1-yl)-2,2′-dimethyl-[1,1′-biphenyl]-3-yl)benzo[d]oxazol-5-yl)methyl)-L-proline] | – | 0.1 to 5 | –
Cc1c(-c2nc3cc(CN4CCC[C@H]4C(=O)O)c(OC(F)F)cc3o2)cccc1-c1cccc(N2CCC(CN3CC(C)(C)C3)CC2)c1C [Example 308, ((6-(difluoromethoxy)-2-(3′-(4-((3,3-dimethylazetidin-1-yl)methyl)piperidin-1-yl)-2,2′-dimethyl-[1,1′-biphenyl]-3-yl)benzo[d]oxazol-5-yl)methyl)-L-proline] | – | 0.1 to 5 | –
Cc1c(-c2nc3cc(CN4CCC[C@H]4C(=O)O)c(OC(F)F)cc3o2)cccc1-c1cccc(N2CCC(CN3CCCC3)CC2)c1C [Example 309, ((6-(difluoromethoxy)-2-(2,2′-dimethyl-3′-(4-(pyrrolidin-1-ylmethyl)piperidin-1-yl)-[1,1′-biphenyl]-3-yl)benzo[d]oxazol-5-yl)methyl)-L-proline] | – | 0.1 to 5 | –
Cc1c(-c2nc3cc(CN[C@@H]4CCC[C@@H]4O)ccc3o2)cccc1-c1cccc(-c2nc3cc(CN4CCC[C@@H]4C(=O)O)c(OC(F)F)cc3o2)c1C [Example 310, ((6-(difluoromethoxy)-2-(3′-(5-((((1R,2S)-2-hydroxycyclopentyl)amino)methyl)benzo[d]oxazol-2-yl)-2,2′-dimethyl-[1,1′-biphenyl]-3-yl)benzo[d]oxazol-5-yl)methyl)-D-proline] | – | 0.1 to 5 | –
Cc1c(-c2nc3cc(CN4CCC[C@H]4C(=O)O)c(OC(F)F)cc3o2)cccc1-c1cccc(-c2nc3cc(CN4CCC(C)(C#N)C4)cc(C#N)c3o2)c1C (stereo partly drawn) [Example 316, ((2-(3′-(7-cyano-5-((3-cyano-3-methylpyrrolidin-1-yl)methyl)benzo[d]oxazol-2-yl)-2,2′-dimethyl-[1,1′-biphenyl]-3-yl)-6-(difluoromethoxy)benzo[d]oxazol-5-yl)methyl)-L-proline] | – | 5 to 50 | –

More lines, main results first:

IC50 (PD-1/PD-L1; numeric values) [nM] | IC50 (PD-1/PD-L1; range symbols) [nM] | SMILES | further results
26 | – | Cc1c(-c2nc3cc(CN4CCOCC4)c(OC(F)F)cc3o2)cccc1-c1cccc(-c2nc3cc(CN4CCC[C@H]4C(=O)O)c(OC(F)F)cc3o2)c1C [Example 13, ((6-(difluoromethoxy)-2-(3′-(6-(difluoromethoxy)-5-(morpholinomethyl)benzo[d]oxazol-2-yl)-2,2′-dimethyl-[1,1′-biphenyl]-3-yl)benzo[d]oxazol-5-yl)methyl)-L-proline] | concentration at 0.5 h [1]: 79.3 ng/mL; concentration at 2 h [1]: 241 ng/mL; concentration at 4 h [1]: 301 ng/mL
– | 5 to 50 | Cc1c(-c2nc3cc(CN4CCCC4)cc(C(F)(F)F)c3[nH]2)cccc1-c1cccc(-c2nc3cc(CN4CCC[C@H]4C(=O)O)c(OC(F)F)cc3o2)c1C [Example 301, ((6-(difluoromethoxy)-2-(2,2′-dimethyl-3′-(5-(pyrrolidin-1-ylmethyl)-7-(trifluoromethyl)-1H-benzo[d]imidazol-2-yl)-[1,1′-biphenyl]-3-yl)benzo[d]oxazol-5-yl)methyl)-L-proline] | –
0.87 | – | Cc1c(-c2nc3ccc(CN4CCCC4)cn3n2)cccc1-c1cccc(-c2nc3cc(CN4CCC[C@H]4C(=O)O)c(OC(F)F)cc3o2)c1C [Example 305, ((6-(difluoromethoxy)-2-(2,2′-dimethyl-3′-(6-(pyrrolidin-1-ylmethyl)-[1,2,4]triazolo[1,5-a]pyridin-2-yl)-[1,1′-biphenyl]-3-yl)benzo[d]oxazol-5-yl)methyl)-L-proline] | –
– | 0.1 to 5 | Cc1c(-c2nc3cc(CN4CCCC4(C)C)ccc3o2)cccc1-c1cccc(-c2nc3cc(CN4CCC[C@H]4C(=O)O)c(OC(F)F)cc3o2)c1C [Example 311, ((6-(difluoromethoxy)-2-(3′-(5-((2,2-dimethylpyrrolidin-1-yl)methyl)benzo[d]oxazol-2-yl)-2,2′-dimethyl-[1,1′-biphenyl]-3-yl)benzo[d]oxazol-5-yl)methyl)-L-proline] | –
– | 0.1 to 5 | Cc1c(-c2nc3cc(CN4CC(C)(C)C4)ccc3o2)cccc1-c1cccc(-c2nc3cc(CN4CCC[C@H]4C(=O)O)c(OC(F)F)cc3o2)c1C [Example 312, ((6-(difluoromethoxy)-2-(3′-(5-((3,3-dimethylazetidin-1-yl)methyl)benzo[d]oxazol-2-yl)-2,2′-dimethyl-[1,1′-biphenyl]-3-yl)benzo[d]oxazol-5-yl)methyl)-L-proline] | –
– | 0.1 to 5 | Cc1c(-c2nc3cc(CN4CCC4C)ccc3o2)cccc1-c1cccc(-c2nc3cc(CN4CCC[C@H]4C(=O)O)c(OC(F)F)cc3o2)c1C (stereo partly drawn) [Example 313, ((6-(difluoromethoxy)-2-(2,2′-dimethyl-3′-(5-((2-methylazetidin-1-yl)methyl)benzo[d]oxazol-2-yl)-[1,1′-biphenyl]-3-yl)benzo[d]oxazol-5-yl)methyl)-L-proline] | –
– | 0.1 to 5 | Cc1c(-c2nc3cc(CN4CCC[C@H]4C(=O)O)c(OC(F)F)cc3o2)cccc1-c1cccc(-c2nc3cc(CN4CCC(C(N)=O)C4)cc(C#N)c3o2)c1C (stereo partly drawn) [Example 315, ((2-(3′-(5-((3-carbamoylpyrrolidin-1-yl)methyl)-7-cyanobenzo [d]oxazol-2-yl)-2,2′-dimethyl-[1,1′-biphenyl]-3-yl)-6-(difluoromethoxy)benzo[d]oxazol-5-yl)methyl)-L-proline] | –

Reference: patent US12187713B2, “Immunomodulators, compositions and methods thereof” (Betta Pharmaceuticals Co., Ltd, priority 2019, dated 2025)
